Measurements from US8268848B2, “Cyclopropane compound” (Eisai R&D Management Co., Ltd., priority 2010, dated 2012).
pIC50: −log10 of the molar value. Where two headings read alike, the source gives them in different places.

Tests used:
OX1 = target: T1, OX1 (Homo sapiens, UniProt O43613); assay: Measurement of orexin receptor-binding ability ([125I]-OX-A, cell membranes, OX1); design: expressed in transfected cells; host or cells: CHO cells (membrane preparation)
T1 sequence (O43613 1-425): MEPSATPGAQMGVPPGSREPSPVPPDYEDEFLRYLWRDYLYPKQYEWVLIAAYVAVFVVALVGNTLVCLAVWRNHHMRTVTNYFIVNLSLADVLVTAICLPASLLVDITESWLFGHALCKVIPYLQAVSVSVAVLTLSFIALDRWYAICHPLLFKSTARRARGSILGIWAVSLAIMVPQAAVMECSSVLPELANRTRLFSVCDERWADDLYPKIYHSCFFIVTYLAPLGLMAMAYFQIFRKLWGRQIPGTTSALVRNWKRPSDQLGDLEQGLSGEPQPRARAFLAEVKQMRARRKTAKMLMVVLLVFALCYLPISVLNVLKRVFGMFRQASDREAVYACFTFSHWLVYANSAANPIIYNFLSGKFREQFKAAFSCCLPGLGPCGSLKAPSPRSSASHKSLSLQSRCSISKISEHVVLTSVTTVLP
Protocol: (§1) 1. Measurement of Orexin Receptor-Binding Ability
(§2) The assay was carried out using a 96-well Wheat Germ Agglutinin Flash Plate (PerkinElmer). The volume in a single assay well was 100 ul, and the composition of the reaction solution was as follows:
(§3) 25 mM HEPES (pH 7.5), 1 mM CaCl2, 4.5 mM MgCl2, 0.5% BSA (bovine serum albumin), 0.1% sodium azide, 0.05% Tween-20, and 0.2% DMSO.
(§4) Cell membranes were prepared from recombinant CHO cells that expressed OX2 or OX1. The cell membranes were used in an amount of 5 μg protein/assay. […] Finally, the radioactivity of each well was measured using a scintillation counter (TopCount, PerkinElmer).

OX2 = target: T2, OX2 (Homo sapiens, UniProt O43614); assay: Measurement of orexin receptor-binding ability ([125I]-OX-A, cell membranes, OX2); design: expressed in transfected cells; host or cells: CHO cells (membrane preparation); conditions: membranes of recombinant CHO cells expressing OX2, 0.2 nM [125I]-OX-A; for pIC50: read-out: OX2 (IC50); for IC50: OX2 (IC50) nM
T2 sequence (O43614 1-444): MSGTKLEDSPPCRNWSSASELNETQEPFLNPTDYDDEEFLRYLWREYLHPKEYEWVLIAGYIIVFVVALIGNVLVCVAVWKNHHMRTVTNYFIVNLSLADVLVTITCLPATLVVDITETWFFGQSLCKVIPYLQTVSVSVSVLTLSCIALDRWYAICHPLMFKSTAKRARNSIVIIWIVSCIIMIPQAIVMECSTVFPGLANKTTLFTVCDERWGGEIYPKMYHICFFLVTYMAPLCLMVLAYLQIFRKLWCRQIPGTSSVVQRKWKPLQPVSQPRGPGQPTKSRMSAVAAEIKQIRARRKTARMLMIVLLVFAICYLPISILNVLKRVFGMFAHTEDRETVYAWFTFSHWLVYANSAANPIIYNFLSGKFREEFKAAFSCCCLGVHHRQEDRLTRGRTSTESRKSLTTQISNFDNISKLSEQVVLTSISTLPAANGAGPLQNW
Protocol: as §1, §2, §3, §4

[1] = membranes of recombinant CHO cells expressing OX1, 0.2 nM [125I]-OX-A, read-out: OX1 (IC50)

| SMILES | pIC50 (OX1; [1]) | pIC50 (OX2) | pIC50 (OX1) | IC50 (OX2) |
| --- | --- | --- | --- | --- |
| Cc1ncc(OC[C@@]2(c3ccccc3)C[C@H]2C(=O)Nc2ncc(C)s2)c(C)n1 [Example 2] | 6.53 | 7.72 |  |  |
| Cc1ncc(OC[C@@]2(c3ccccc3)C[C@H]2C(=O)Nc2nc(C)c(C)s2)c(C)n1 [Example 4] | 7.26 | 7.42 |  |  |
| Cc1ncc(OC[C@@]2(c3ccccc3)C[C@H]2C(=O)Nc2ccc(C(F)(F)F)cn2)c(C)n1 [Example 5] | 6.84 | 7.42 |  |  |
| Cc1ncc(OC[C@@]2(c3ccccc3)C[C@H]2C(=O)Nc2cc(C(F)(F)F)ccn2)c(C)n1 [Example 10] | 6.64 | 7.51 |  |  |
| COc1cccc(NC(=O)[C@@H]2C[C@@]2(COc2cnc(C)nc2C)c2ccccc2)n1 [Example 11] | 6.55 | 7.28 |  |  |
| Cc1ncc(OC[C@@]2(c3ccccc3)C[C@H]2C(=O)Nc2cccc(Cl)n2)c(C)n1 [Example 12] | 6.61 | 7.28 |  |  |
| Cc1ncc(OC[C@@]2(c3ccccc3)C[C@H]2C(=O)Nc2ccc3ccncc3c2)c(C)n1 [Example 13] | 5.91 | 7.15 |  |  |
| COCc1ccnc(NC(=O)[C@@H]2C[C@@]2(COc2cnc(C)nc2C)c2ccccc2)c1 [Example 14] | 6.52 | 7.80 |  |  |
| Cc1ncc(OC[C@@]2(c3ccccc3)C[C@H]2C(=O)Nc2cc(C(F)F)ccn2)c(C)n1 [Example 15] |  |  | 6.67 | 41 nM |
| Cc1ncc(OC[C@@]2(c3ccccc3)C[C@H]2C(=O)Nc2cccc(CO)c2)c(C)n1 [Example 17] | 6.53 | 7.42 |  |  |
| Cc1ncc(OC[C@@]2(c3ccccc3)C[C@H]2C(=O)Nc2ccnc(F)c2)c(C)n1 [Example 18] | 6.46 | 7.48 |  |  |
| Cc1ncc(OC[C@@]2(c3ccccc3)C[C@H]2C(=O)Nc2cccc(N(C)C)c2)c(C)n1 [Example 19, (1R,2S)-N-[3-(dimethylamino)phenyl]-2-{[(2,4-dimethylpyrimidin-5-yl)oxy]methyl}-2-phenylcyclopropanecarboxamide] | 7.03 | 8.00 |  |  |
| Cc1ncc(OC[C@@]2(c3ccccc3)C[C@H]2C(=O)Nc2ccc3c(c2)N(C)C(=O)CO3)c(C)n1 [Example 22] | 6.56 | 7.77 |  |  |
| Cc1ncc(OC[C@@]2(c3ccccc3)C[C@H]2C(=O)Nc2ccc3c(c2)NC(=O)CO3)c(C)n1 [Example 23] | 5.77 | 7.17 |  |  |
| Cc1ncc(OC[C@@]2(c3ccccc3)C[C@H]2C(=O)Nc2cccc(Cl)c2)c(C)n1 [Example 24, (1R,2S)-N-(3-chlorophenyl)-2-{[(2,4-dimethylpyrimidin-5-yl)oxy]methyl}-2-phenylcyclopropanecarboxamide] | 7.55 | 8.15 |  |  |
| Cc1ncc(OC[C@@]2(c3ccccc3)C[C@H]2C(=O)Nc2ccc(Cl)cc2)c(C)n1 [Example 25] | 6.03 | 7.23 |  |  |
| Cc1ncc(OC[C@@]2(c3ccccc3)C[C@H]2C(=O)Nc2ccc(Cl)c(C#N)c2)c(C)n1 [Example 27] | 6.77 | 7.82 |  |  |
| Cc1cc(NC(=O)[C@@H]2C[C@@]2(COc2cnc(C)nc2C)c2ccccc2)ccn1 [Example 28] | 5.77 | 7.00 |  |  |
| Cc1ncc(OC[C@@]2(c3ccccc3)C[C@H]2C(=O)Nc2cccc(S(C)(=O)=O)c2)c(C)n1 [Example 29] | 6.34 | 7.26 |  |  |
| Cc1ncc(OC[C@@]2(c3ccccc3)C[C@H]2C(=O)Nc2ccc(F)c(F)c2)c(C)n1 [Example 30] | 7.11 | 7.92 |  |  |
| Cc1ncc(OC[C@@]2(c3ccccc3)C[C@H]2C(=O)Nc2cc(F)cc(F)c2)c(C)n1 [Example 31] | 6.65 | 7.59 |  |  |
| Cc1ncc(OC[C@@]2(c3ccccc3)C[C@H]2C(=O)Nc2ccc(F)c(Cl)c2)c(C)n1 [Example 32, (1R,2S)-N-(3-chloro-4-fluorophenyl)-2-{[(2,4-dimethylpyrimidin-5-yl)oxy]methyl}-2-phenylcyclopropanecarboxamide] | 7.82 | 8.46 |  |  |
| Cc1ncc(OC[C@@]2(c3ccccc3)C[C@H]2C(=O)Nc2ccnc(Cl)c2)c(C)n1 [Example 33] | 6.68 | 7.82 |  |  |

| SMILES | pIC50 (OX1; [1]) | pIC50 (OX2) | pIC50 (OX1) | IC50 (OX2) |
| --- | --- | --- | --- | --- |
| Cc1ncc(OC[C@@]2(c3ccccc3)C[C@H]2C(=O)Nc2cc(F)cc(C#N)c2)c(C)n1 [Example 34] |  |  | 6.37 | 18 nM |
| Cc1ncc(OC[C@@]2(c3ccccc3)C[C@H]2C(=O)Nc2cc(Cl)cc(C#N)c2)c(C)n1 [Example 35] | 6.25 | 7.37 |  |  |
| COc1cccc(NC(=O)[C@@H]2C[C@@]2(COc2cnc(C)nc2C)c2ccccc2)c1 [Example 36, (1R,2S)-2-{[(2,4-dimethylpyrimidin-5-yl)oxy]methyl}-N-(3-methoxyphenyl)-2-phenylcyclopropanecarboxamide] | 8.05 | 8.52 |  |  |
| CC(=O)c1cccc(NC(=O)[C@@H]2C[C@@]2(COc2cnc(C)nc2C)c2ccccc2)c1 [Example 37] |  |  | 7.39 | 8 nM |
| Cc1ncc(OC[C@@]2(c3ccccc3)C[C@H]2C(=O)Nc2cccc(-c3nnc[nH]3)c2)c(C)n1 [Example 38] | 6.29 | 7.54 |  |  |
| Cc1ncc(OC[C@@]2(c3ccccc3)C[C@H]2C(=O)Nc2cccc(CC#N)c2)c(C)n1 [Example 39, (1R,2S)-N-[3-(cyanomethyl)phenyl]-2-{[(2,4-dimethylpyrimidin-5-yl)oxy]methyl}-2-phenylcyclopropanecarboxamide] | 6.45 | 8.22 |  |  |
| Cc1ncc(OC[C@@]2(c3ccccc3)C[C@H]2C(=O)Nc2cccc(CCO)c2)c(C)n1 [Example 40] | 6.76 | 8.05 |  |  |
| Cc1ncc(OC[C@@]2(c3ccccc3)C[C@H]2C(=O)Nc2ccnc(C#N)c2)c(C)n1 [Example 41, (1R,2S)-N-(2-cyanopyridin-4-yl)-2-{[(2,4-dimethylpyrimidin-5-yl)oxy]methyl}-2-phenylcyclopropanecarboxamide] | 6.90 | 8.10 |  |  |
| COCc1cccc(NC(=O)[C@@H]2C[C@@]2(COc2cnc(C)nc2C)c2ccccc2)c1 [Example 42] |  |  | 6.43 | 12 nM |
| Cc1ncc(OC[C@@]2(c3ccccc3)C[C@H]2C(=O)Nc2cccc(C(F)(F)F)c2)c(C)n1 [Example 43, (1R,2S)-2-{[(2,4-dimethylpyrimidin-5-yl)oxy]methyl}-2-phenyl-N-[3-(trifluoromethyl)phenyl]cyclopropanecarboxamide] | 7.07 | 8.15 |  |  |
| Cc1ncc(OC[C@@]2(c3ccccc3)C[C@H]2C(=O)Nc2cc(C#N)ccn2)c(C)n1 [Example 46] | 6.37 | 7.37 |  |  |
| Cc1ncc(OCC2(c3ccccc3C)CC2C(=O)Nc2ccc(C#N)cn2)c(C)n1 (stereo not shown) [Example 178] |  |  | 6.11 |  |
| COc1cc(F)cc([C@]2(COc3cnc(C)nc3C)C[C@H]2C(=O)Nc2ccc(Cl)cn2)c1 [Example 255] |  | 7.57 |  |  |
| COc1cc([C@]2(COc3cnc(C)nc3C)C[C@H]2C(=O)Nc2ccc(Cl)cn2)ccc1F [Example 257] |  | 7.08 |  |  |
| COc1cc([C@]2(COc3cnc(C)nc3C)C[C@H]2C(=O)Nc2cc(C)c(F)cn2)ccc1F [Example 258] |  | < 7.22 |  |  |
| COc1cc([C@]2(COc3cnc(C)nc3C)C[C@H]2C(=O)Nc2ccccn2)ccc1F [Example 259] |  | < 7.22 |  |  |
| Cc1ncc(OC[C@@]2(c3ccccc3)C[C@H]2c2nc3cnccc3[nH]2)c(C)n1 [Example 304] |  | 7.05 |  |  |
| Cc1ncc(OC[C@@]2(c3cc(F)cc(F)c3)C[C@H]2c2nc3ncc(Cl)cc3[nH]2)c(C)n1 [Example 307] |  | 7.48 |  |  |
| Cc1ncc(OC[C@@]2(c3cc(F)cc(F)c3)C[C@H]2c2nc3ncccc3[nH]2)c(C)n1 [Example 308] |  | 7.51 |  |  |
| CCc1nc(C)ncc1OC[C@@]1(c2cccc(F)c2)C[C@H]1c1nc2cnccc2[nH]1 [Example 309] |  | 8.00 |  |  |
| COc1cc([C@]2(COc3cnc(C)nc3C)C[C@H]2C(=O)Nc2ccc(F)cn2)ccc1F [Example 314] |  |  |  | 173 nM |
| COc1cc([C@]2(COc3cnc(C)nc3C)C[C@H]2C(=O)Nc2ccc(F)cc2)ccc1F [Example 315] |  | 6.68 |  |  |
